# Measurements reported in publication PMC8692993, “PPARα and PPARγ activation is associated with pleural mesothelioma invasion but therapeutic inhibition is ineffective” (iScience, 2021).
# Key:
# VGE62 = experiment: MTT cell metabolic activity assay, VGE62; format: cell-based, human; conditions: VGE62, 48 h, 0.391-100 μM; effect at higher micromolar concentrations
# Procedure: (§1) Cells were harvested and seeded in 96-flat well plates (Corning) at a density of 5 x 10^4 cells/mL overnight. Media was removed and 100 μL media with GW6471 or GW9662 at indicated concentrations was added to each well. Cell viability and toxicity were measured at 48 h. Cells were incubated with 50 μL of a 2 mg/mL solution of (3-(4,5-dimethyl-thiazole-2-yl)-2,5-[…] tetrazolium (MTT, Sigma-Aldrich) in PBS for 4 h and then exposed to 100 μL dimethyl sulfoxide (DMSO; Sigma-Aldrich). Cell viability was measured by absorption at 570 nm in a microplate spectrophotometer (Spectromax 250 plate reader). Results are shown as relative cell viability.
# [1] = test system: HAP1, HAP1 PPARA KO, and HAP1 PPARG KO cell lines; experiment: MTT cell metabolic activity assay, HAP1 lines; format: cell-based, human
# Procedure: as §1
# PPARγ = biological target: T1, PPARγ (Homo sapiens, UniProt P37231); parameters: expressed in transfected cells; host or cells: HG5LN (HeLa-derived, GAL4RE-luciferase); method as in Goldstein et al., 2017; conditions: an IC50 value was not reported, ref Goldstein et al., 2017, read-out: Functionality, Lit. IC50; cited from earlier work
# T1 sequence (P37231 238-503 limits assumed): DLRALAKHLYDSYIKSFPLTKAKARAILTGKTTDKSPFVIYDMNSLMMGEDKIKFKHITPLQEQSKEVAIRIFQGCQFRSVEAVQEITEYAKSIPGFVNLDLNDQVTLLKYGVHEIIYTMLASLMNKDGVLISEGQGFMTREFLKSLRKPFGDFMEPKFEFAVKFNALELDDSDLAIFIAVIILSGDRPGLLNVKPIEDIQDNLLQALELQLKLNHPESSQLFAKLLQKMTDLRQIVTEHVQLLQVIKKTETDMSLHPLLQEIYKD
# AE17 = experiment: MTT cell metabolic activity assay, AE17; format: cell-based, mouse; conditions: AE17, 48 h, 0.391-100 μM; effect at higher micromolar concentrations
# Procedure: as §1
# [2] = Protein binding by rapid equilibrium dialysis, mouse plasma; format: in vitro ADME; conditions: corrected from 10% diluted plasma, mean ± SD, n=3
# Procedure: Protein binding was determined via rapid equilibrium dialysis (RED) with incorporation of a pre-saturation step ([Charman et al., 2020]). The pre-incubation process involved RED system being exposed to fresh aqueous solutions of GW6471 (400 nM) for three periods (including one overnight). For the protein binding determination, GW6471 was spiked into the diluted mouse plasma (10% (v/v); in PBS) or DMEM/F-12 media containing 5% dextran-coated charcoal-stripped FCS (at 2000 nM) and dialysed against protein-free PBS (for plasma) or base media (DMEM/F-12) containing GW6471 at 40 nM for 24 h at 37°C under ambient atmosphere on a plate shaker. Concentrations of GW6471 in dialysate and donor samples collected at the end of the dialysis period were determined via LC–MS.
# Compound binding was assessed on the basis of the measured concentrations in dialysate and donor samples at the end of the dialysis period.
# Based on the post-dialysis measured concentrations in donor (Ctotal_post_dialysis) and dialysate (Cunbound) for each RED unit, the unbound fraction of compound in assay matrix (fu_diluted) was calculated according to Equation 1 below:(Equation 1) fu=Cunbound/Ctotal_post−dialysis
# For media, the value for fu calculated according to Equation 1 above was used without further correction. […]
# [3] = test system: head and neck paraganglioma; parameters: method as in Florio et al., 2017; conditions: 24 μM, by cell-cycle arrest and caspase-dependent apoptosis; ref Florio et al., 2017; cited from earlier work
# [4] = test system: JU77 human mesothelioma cell line; experiment: Soft agar colony formation assay; format: cell-based; conditions: JU77, GW6471 0.5-8 μM, p <0.05
# Procedure: Cells were incubated with different concentrations of GW6471 (from 0.5 μM to 8 μM) for a soft agar colony formation assay ([Horibata et al., 2015]). Briefly, 3% 2-hydroxyethyl agarose (agarose, A4018; Sigma-Aldrich, Australia) was prepared as stock solution. The bottom layer was prepared by incubating 20% agarose gel in R10 complete medium, RPMI 1640 (Invitrogen) supplemented with 10% foetal calf serum (FCS; Life Technologies), 20 mM HEPES (Sigma-Aldrich), 0.05 mM 2-mercaptoethanol (pH 7.2; Merck, Kilsyth, Australia), 60 μg/mL penicillin (Life Technologies), 50 μg/mL gentamicin (David Bull Labs), for a final concentration of 0.6%, 2mL per well, at 4°C for 1 h to allow the mixture to solidify, then incubating at 37°C for at least 30 min before seeding the cells. The cell-containing layer (10% agarose gel in R10 complete medium for a final concentration of 0.3%, 1 mL per well) was prepared with a concentration of 1,000 cells/mL. 1 mL of cells was then transfer to each well. […]
# Colony counting was performed by adding 1 mL of 0.005% crystal violet (C0775; Sigma-Aldrich, Australia) in PBS on top of each well and incubating at room temperature for 24 h. Pictures were taken and colonies counted with ImageJ (v1.52a).
structure (smiles),measurement,setting,value
CCC(=O)NC[C@H](Cc1ccc(OCCc2nc(-c3ccccc3)oc2C)cc1)N/C(C)=C\C(=O)c1ccc(C(F)(F)F)cc1 [GW6471],Cell viability (MTT),VGE62,lowered viability
same,Cellular proliferation (MTT),"[1]; HAP1, HAP1 PPARA KO, HAP1 PPARG KO, 0.391-100 μM",inhibited cellular proliferation at micromolar concentrations
same,Growth inhibition compared between parental and PPARA/PPARG KO cells,[1]; HAP1 versus HAP1 PPARA KO and HAP1 PPARG KO,identical
same,IC50,PPARγ,< 1000 nM
same,Cell viability (MTT),AE17,lowered viability
same,Fraction unbound (fu),[2],0.00059 ± 0.00005
same,Cell viability and growth,[3],reduced cell viability and growth
same,Number of colonies formed,[4],significant reduction in the number of colonies formed
